# Source: PubChem BioAssay (NCI)
#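 Values below derive from 48-hour exposures of cells grown in 96-well plates, with endpoints linearly interpolated between the two concentrations bracketing the appropriate inhibition level. GI50 = concentration required for 50% inhibition of growth. The concentration for full growth arrest is given as TGI.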
# Legend:
# Experiment in all cases: inhibition of tumour cell growth, NCI panel, 48 h
# A498 renal = test system: A498 renal
# RXF 393 renal = test system: RXF 393 renal
# LOX IMVI melanoma = test system: LOX IMVI melanoma
# HCT-15 colon = test system: HCT-15 colon
# UACC-62 melanoma = test system: UACC-62 melanoma
# KM12 colon = test system: KM12 colon
# MDA-N = test system: MDA-N
# SK-OV-3 ovarian = test system: SK-OV-3 ovarian
# HL-60(TB) leukemia = test system: HL-60(TB) leukemia
# BT-549 breast = test system: BT-549 breast
# HOP-92 NSCLC = test system: HOP-92 NSCLC
# NCI-H23 lung = test system: NCI-H23 lung
# DU-145 prostate = test system: DU-145 prostate
# SK-MEL-28 melanoma = test system: SK-MEL-28 melanoma
# SK-MEL-5 melanoma = test system: SK-MEL-5 melanoma
# HOP-62 NSCLC = test system: HOP-62 NSCLC
# TK-10 renal = test system: TK-10 renal
# HT29 colon = test system: HT29 colon
# MDA-MB-435 = test system: MDA-MB-435
# NCI-H460 lung = test system: NCI-H460 lung
# SNB-19 CNS = test system: SNB-19 CNS
# OVCAR-3 ovarian = test system: OVCAR-3 ovarian
# OVCAR-5 ovarian = test system: OVCAR-5 ovarian
# SN12C renal = test system: SN12C renal
# COLO 205 colon = test system: COLO 205 colon
# CAKI-1 renal = test system: CAKI-1 renal
# SW-620 colon = test system: SW-620 colon
# SK-MEL-2 melanoma = test system: SK-MEL-2 melanoma
# SF-539 CNS = test system: SF-539 CNS
# OVCAR-8 ovarian = test system: OVCAR-8 ovarian
# MDA-MB-231 breast = test system: MDA-MB-231 breast
# UACC-257 melanoma = test system: UACC-257 melanoma
# MOLT-4 leukemia = test system: MOLT-4 leukemia
# A549 NSCLC = test system: A549 NSCLC
# ACHN renal = test system: ACHN renal
# PC-3 prostate = test system: PC-3 prostate
# IGROV1 ovarian = test system: IGROV1 ovarian
# OVCAR-4 ovarian = test system: OVCAR-4 ovarian
# U251 CNS = test system: U251 CNS
# CCRF-CEM leukemia = test system: CCRF-CEM leukemia
# NCI/ADR-RES ovarian = test system: NCI/ADR-RES ovarian
# HCT-116 colon = test system: HCT-116 colon
# MCF7 breast = test system: MCF7 breast
# 786-0 renal = test system: 786-0 renal
# SF-295 CNS = test system: SF-295 CNS
# EKVX NSCLC = test system: EKVX NSCLC
# HCC-2998 colon = test system: HCC-2998 colon
# RPMI-8226 leukemia = test system: RPMI-8226 leukemia
# M14 melanoma = test system: M14 melanoma
# T-47D breast = test system: T-47D breast
# MALME-3M melanoma = test system: MALME-3M melanoma
# SNB-75 CNS = test system: SNB-75 CNS
# SF-268 CNS = test system: SF-268 CNS
# SR leukemia = test system: SR leukemia
# K-562 leukemia = test system: K-562 leukemia
# NCI-H522 lung = test system: NCI-H522 lung
# HS 578T breast = test system: HS 578T breast
# NCI-H226 lung = test system: NCI-H226 lung
# UO-31 renal = test system: UO-31 renal
structure (smiles),measurement,setting,value
CC(C)c1ccccc1SC1CC(=O)CC(Sc2ccccc2C(C)C)C12O[C@H](c1ccccc1)[C@@H](c1ccccc1)O2 (stereo partly drawn),TGI,A498 renal,> 100 µM
same,TGI,RXF 393 renal,42 µM
same,TGI,LOX IMVI melanoma,97.4 µM
same,TGI,HCT-15 colon,> 100 µM
same,TGI,UACC-62 melanoma,96.4 µM
same,TGI,KM12 colon,> 100 µM
same,TGI,MDA-N,47.5 µM
same,TGI,SK-OV-3 ovarian,> 100 µM
same,TGI,HL-60(TB) leukemia,34.8 µM
same,TGI,BT-549 breast,> 100 µM
same,TGI,HOP-92 NSCLC,> 100 µM
same,TGI,NCI-H23 lung,> 100 µM
same,TGI,DU-145 prostate,> 100 µM
same,TGI,SK-MEL-28 melanoma,> 100 µM
same,TGI,SK-MEL-5 melanoma,> 100 µM
same,TGI,HOP-62 NSCLC,> 100 µM
same,TGI,TK-10 renal,> 100 µM
same,TGI,HT29 colon,> 100 µM
same,TGI,MDA-MB-435,55.2 µM
same,TGI,NCI-H460 lung,> 100 µM
same,TGI,SNB-19 CNS,> 100 µM
same,TGI,OVCAR-3 ovarian,> 100 µM
same,TGI,OVCAR-5 ovarian,> 100 µM
same,TGI,SN12C renal,47.9 µM
same,TGI,COLO 205 colon,> 100 µM
same,TGI,CAKI-1 renal,62.5 µM
same,TGI,SW-620 colon,> 100 µM
same,TGI,SK-MEL-2 melanoma,> 100 µM
same,TGI,SF-539 CNS,> 100 µM
same,TGI,OVCAR-8 ovarian,> 100 µM
same,TGI,MDA-MB-231 breast,71.8 µM
same,TGI,UACC-257 melanoma,> 100 µM
same,TGI,MOLT-4 leukemia,> 100 µM
same,TGI,A549 NSCLC,> 100 µM
same,TGI,ACHN renal,> 100 µM
same,TGI,PC-3 prostate,> 100 µM
same,TGI,IGROV1 ovarian,> 100 µM
same,TGI,OVCAR-4 ovarian,> 100 µM
same,TGI,U251 CNS,40.1 µM
same,TGI,CCRF-CEM leukemia,52.9 µM
same,TGI,NCI/ADR-RES ovarian,> 100 µM
same,TGI,HCT-116 colon,> 100 µM
same,TGI,MCF7 breast,> 100 µM
same,TGI,786-0 renal,33.3 µM
same,TGI,SF-295 CNS,> 100 µM
same,TGI,EKVX NSCLC,> 100 µM
same,TGI,HCC-2998 colon,> 100 µM
same,TGI,RPMI-8226 leukemia,61.3 µM
same,TGI,M14 melanoma,40.8 µM
same,TGI,T-47D breast,82.9 µM
COc1ccc(C(=O)/C=C/c2ccc(OCC(=N)N)cc2)cc1OC,TGI,RXF 393 renal,> 10 µM
same,TGI,LOX IMVI melanoma,> 10 µM
same,TGI,HCT-15 colon,> 10 µM
same,TGI,UACC-62 melanoma,> 10 µM
same,TGI,KM12 colon,8.31 µM
same,TGI,MALME-3M melanoma,> 10 µM
same,TGI,MDA-N,> 10 µM
same,TGI,SK-OV-3 ovarian,> 10 µM
same,TGI,HL-60(TB) leukemia,4.82 µM
same,TGI,NCI-H23 lung,> 10 µM
same,TGI,DU-145 prostate,> 10 µM
same,TGI,SK-MEL-28 melanoma,> 10 µM
same,TGI,SK-MEL-5 melanoma,> 10 µM
same,TGI,HOP-62 NSCLC,> 10 µM
same,TGI,TK-10 renal,> 10 µM
same,TGI,HT29 colon,> 10 µM
same,TGI,SNB-75 CNS,9.98 µM
same,TGI,SN12C renal,> 10 µM
same,TGI,COLO 205 colon,> 10 µM
same,TGI,CAKI-1 renal,> 10 µM
same,TGI,SW-620 colon,> 10 µM
same,TGI,SF-268 CNS,> 10 µM
same,TGI,SR leukemia,4.39 µM
same,TGI,OVCAR-8 ovarian,> 10 µM
same,TGI,MDA-MB-231 breast,> 10 µM
same,TGI,UACC-257 melanoma,> 10 µM
same,TGI,A549 NSCLC,> 10 µM
same,TGI,PC-3 prostate,> 10 µM
same,TGI,IGROV1 ovarian,> 10 µM
same,TGI,CCRF-CEM leukemia,8.86 µM
same,TGI,MCF7 breast,> 10 µM
same,TGI,786-0 renal,> 10 µM
same,TGI,SF-295 CNS,> 10 µM
same,TGI,EKVX NSCLC,> 10 µM
same,TGI,HCC-2998 colon,> 10 µM
same,TGI,RPMI-8226 leukemia,> 10 µM
same,TGI,K-562 leukemia,> 10 µM
same,TGI,M14 melanoma,> 10 µM
same,TGI,T-47D breast,> 10 µM
OCC1OC(n2ccc3c2ncn2ncnc32)C(O)C1O (stereo not drawn),GI50,A498 renal,0.205 µM
same,TGI,A498 renal,2.37 µM
same,GI50,RXF 393 renal,0.989 µM
same,TGI,RXF 393 renal,13.8 µM
same,GI50,LOX IMVI melanoma,0.29 µM
same,TGI,LOX IMVI melanoma,1.76 µM
same,GI50,HCT-15 colon,0.47 µM
same,TGI,HCT-15 colon,> 100 µM
same,GI50,UACC-62 melanoma,8.42 µM
same,TGI,UACC-62 melanoma,> 100 µM
same,GI50,KM12 colon,2.42 µM
same,TGI,KM12 colon,> 100 µM
same,GI50,MALME-3M melanoma,29 µM
same,TGI,MALME-3M melanoma,> 100 µM
same,GI50,NCI-H522 lung,90.4 µM
same,TGI,NCI-H522 lung,> 100 µM
same,GI50,SK-OV-3 ovarian,2.08 µM
same,TGI,SK-OV-3 ovarian,> 49.2 µM
same,GI50,HS 578T breast,6.46 µM
same,TGI,HS 578T breast,85.9 µM
same,GI50,HL-60(TB) leukemia,0.854 µM
same,TGI,HL-60(TB) leukemia,5.5 µM
same,GI50,BT-549 breast,1.23 µM
same,TGI,BT-549 breast,25.2 µM
same,GI50,HOP-92 NSCLC,0.253 µM
same,TGI,HOP-92 NSCLC,9.22 µM
same,GI50,NCI-H23 lung,1.4 µM
same,TGI,NCI-H23 lung,> 100 µM
same,GI50,DU-145 prostate,0.379 µM
same,TGI,DU-145 prostate,> 100 µM
same,GI50,SK-MEL-28 melanoma,> 72.9 µM
same,TGI,SK-MEL-28 melanoma,> 100 µM
same,GI50,SK-MEL-5 melanoma,12 µM
same,TGI,SK-MEL-5 melanoma,50.1 µM
same,GI50,HOP-62 NSCLC,0.595 µM
same,TGI,HOP-62 NSCLC,33.1 µM
same,GI50,TK-10 renal,3.81 µM
same,TGI,TK-10 renal,> 100 µM
same,GI50,HT29 colon,0.444 µM
same,TGI,HT29 colon,> 100 µM
same,GI50,MDA-MB-435,6.5 µM
same,TGI,MDA-MB-435,> 100 µM
same,GI50,NCI-H460 lung,2.25 µM
same,TGI,NCI-H460 lung,> 100 µM
same,GI50,SNB-19 CNS,4.7 µM
same,TGI,SNB-19 CNS,> 100 µM
same,GI50,SNB-75 CNS,4.2 µM
same,TGI,SNB-75 CNS,68.7 µM
same,GI50,OVCAR-3 ovarian,0.552 µM
same,TGI,OVCAR-3 ovarian,> 100 µM
same,GI50,OVCAR-5 ovarian,1.19 µM
same,TGI,OVCAR-5 ovarian,> 100 µM
same,GI50,SN12C renal,0.6 µM
same,TGI,SN12C renal,> 100 µM
same,GI50,NCI-H226 lung,1.59 µM
same,TGI,NCI-H226 lung,> 100 µM
same,GI50,COLO 205 colon,2.77 µM
same,TGI,COLO 205 colon,19.1 µM
same,GI50,CAKI-1 renal,2.67 µM
same,TGI,CAKI-1 renal,> 100 µM
same,GI50,SW-620 colon,0.528 µM
same,TGI,SW-620 colon,> 100 µM
same,GI50,SF-268 CNS,6.83 µM
same,TGI,SF-268 CNS,> 100 µM
same,GI50,SK-MEL-2 melanoma,46.2 µM
same,TGI,SK-MEL-2 melanoma,> 100 µM
same,GI50,SR leukemia,2.96 µM
same,TGI,SR leukemia,> 68.8 µM
same,GI50,SF-539 CNS,2.13 µM
same,TGI,SF-539 CNS,57.3 µM
same,GI50,OVCAR-8 ovarian,0.392 µM
same,TGI,OVCAR-8 ovarian,5.68 µM
same,GI50,MDA-MB-231 breast,1.52 µM
same,TGI,MDA-MB-231 breast,> 100 µM
same,GI50,UACC-257 melanoma,> 70.4 µM
same,TGI,UACC-257 melanoma,> 100 µM
same,GI50,MOLT-4 leukemia,0.407 µM
same,TGI,MOLT-4 leukemia,> 43.1 µM
same,GI50,A549 NSCLC,4.91 µM
same,TGI,A549 NSCLC,> 100 µM
same,GI50,ACHN renal,0.719 µM
same,TGI,ACHN renal,> 100 µM
same,GI50,UO-31 renal,2.74 µM
same,TGI,UO-31 renal,> 100 µM
same,GI50,PC-3 prostate,0.459 µM
same,TGI,PC-3 prostate,22.8 µM
same,GI50,IGROV1 ovarian,3.73 µM
same,TGI,IGROV1 ovarian,> 47.4 µM
same,GI50,OVCAR-4 ovarian,5.1 µM
same,TGI,OVCAR-4 ovarian,63.1 µM
same,GI50,U251 CNS,47.7 µM
same,TGI,U251 CNS,> 100 µM
same,GI50,CCRF-CEM leukemia,0.596 µM
same,TGI,CCRF-CEM leukemia,> 100 µM
same,GI50,NCI/ADR-RES ovarian,0.712 µM
same,TGI,NCI/ADR-RES ovarian,63.7 µM
same,GI50,HCT-116 colon,1.38 µM
same,TGI,HCT-116 colon,> 100 µM
same,GI50,MCF7 breast,0.183 µM
same,TGI,MCF7 breast,20.4 µM
same,GI50,786-0 renal,2.47 µM
same,TGI,786-0 renal,> 100 µM
same,GI50,SF-295 CNS,1.13 µM
same,TGI,SF-295 CNS,> 59.8 µM
same,GI50,HCC-2998 colon,3.09 µM
same,TGI,HCC-2998 colon,> 100 µM
same,GI50,RPMI-8226 leukemia,6.62 µM
same,TGI,RPMI-8226 leukemia,> 100 µM
same,GI50,K-562 leukemia,2.07 µM
same,TGI,K-562 leukemia,> 100 µM
same,GI50,M14 melanoma,5.65 µM
same,TGI,M14 melanoma,> 100 µM
same,GI50,T-47D breast,0.273 µM
same,TGI,T-47D breast,5.54 µM
